Columns and labels:
Format in all cases: organism-based
Conditions in all cases: in vivo
Phaseolus vulgaris [1] = experiment: Phytotoxicity against Phaseolus vulgaris (black beans) assessed as reduction in plant height applied pre-emergence relative to control; design: scale not given: the % may be the effect or the level left
Phaseolus vulgaris [2] = experiment: Phytotoxicity against Phaseolus vulgaris (white beans) assessed as crop injury
Phaseolus vulgaris [3] = experiment: Phytotoxicity against Phaseolus vulgaris (cranberry beans) assessed as crop injury
Phaseolus vulgaris [4] = experiment: Phytotoxicity against Phaseolus vulgaris (white beans) assessed as reduction in plant height applied pre-emergence relative to control; design: scale not given: the % may be the effect or the level left
Phaseolus vulgaris [5] = experiment: Phytotoxicity against Phaseolus vulgaris (kidney bean) assessed as crop injury
Phaseolus vulgaris [6] = experiment: Phytotoxicity against Phaseolus vulgaris (pink beans) assessed as crop injury
Phaseolus vulgaris [7] = experiment: Phytotoxicity against Phaseolus vulgaris (black beans) assessed as reduction in shoot dry weight relative to control; design: scale not given: the % may be the effect or the level left
Phaseolus vulgaris [8] = experiment: Phytotoxicity against yellow eye bean assessed as reduction in shoot dry weight applied pre-emergence relative to control; design: scale not given: the % may be the effect or the level left
Phaseolus vulgaris [9] = experiment: Phytotoxicity against Phaseolus vulgaris (otebo beans) assessed as reduction in plant height applied pre-emergence relative to control; design: scale not given: the % may be the effect or the level left
Phaseolus vulgaris [10] = experiment: Phytotoxicity against Phaseolus vulgaris (pinto beans) assessed as reduction in plant height applied pre-emergence relative to control; design: scale not given: the % may be the effect or the level left
Phaseolus vulgaris [11] = experiment: Phytotoxicity against yellow eye bean assessed as reduction in plant height applied pre-emergence relative to control; design: scale not given: the % may be the effect or the level left
Phaseolus vulgaris [12] = experiment: Phytotoxicity against Phaseolus vulgaris (white beans) assessed as reduction in shoot dry weight applied pre-emergence relative to control; design: scale not given: the % may be the effect or the level left
Phaseolus vulgaris [13] = experiment: Phytotoxicity against Phaseolus vulgaris (black beans) assessed as reduction in shoot dry weight applied pre-emergence relative to control; design: scale not given: the % may be the effect or the level left
Phaseolus vulgaris [14] = experiment: Phytotoxicity against Phaseolus vulgaris (pinto beans)s assessed as reduction in shoot dry weight applied pre-emergence relative to control; design: scale not given: the % may be the effect or the level left
Phaseolus vulgaris [15] = experiment: Phytotoxicity against Phaseolus vulgaris (otebo beans) assessed as reduction in shoot dry weight applied pre-emergence relative to control; design: scale not given: the % may be the effect or the level left

SMILES | Activity (Phaseolus vulgaris [1]) [%] | Activity (Phaseolus vulgaris [2]) [%] | Activity (Phaseolus vulgaris [3]) [%] | Activity (Phaseolus vulgaris [4]) [%] | Activity (Phaseolus vulgaris [5]) [%] | other results
C#CCN1C(=O)COc2cc(F)c(N3C(=O)C4=C(CCCC4)C3=O)cc21 [FLUMIOXAZIN] | 23 | 17 | 4 | 28 |  | 
CCc1cccc(CC)c1N(COC)C(=O)CCl [ALACHLOR] |  | 6 |  |  | 0.5 | 
CCc1cnc(C2=NC(C)(C(C)C)C(=O)N2)c(C(=O)O)c1 (stereo not given) [IMAZETHAPYR] | 40 | 11 |  | 40 | 2 | 
CS(=O)(=O)NC(=O)c1cc(Oc2ccc(C(F)(F)F)cc2Cl)ccc1[N+](=O)[O-] [FOMESAFEN] |  |  |  |  | 1 | Activity (Phaseolus vulgaris [6]): 5%
CCc1cccc(C)c1N(C(=O)CCl)[C@@H](C)COC [S-METOLACHLOR] |  |  |  |  |  | Activity (Phaseolus vulgaris [7]): 16%
CON(C)C(=O)Nc1ccc(Cl)c(Cl)c1 [LINURON] | 24 | 49 | 4 | 24 |  | Activity (Phaseolus vulgaris [8]): 26%; Activity (Phaseolus vulgaris [9]): 24%; Activity (Phaseolus vulgaris [10]): 24%; Activity (Phaseolus vulgaris [11]): 24%; Activity (Phaseolus vulgaris [12]): 26%; Activity (Phaseolus vulgaris [13]): 26%; Activity (Phaseolus vulgaris [14]): 26%; Activity (Phaseolus vulgaris [15]): 26%
